Results: patent publication US6972287B1, “Method of inhibiting amyloid protein aggregation and imaging amyloid deposits” (Pfizer Inc., priority 1999, dated 2005)
Values joined by “and” are separate entries in the source; they are usually repeats but may differ in a detail not shown here. Equal entries are not always repeated.

Columns and labels:
Aβ(1-40) [1] = molecular target: T1, Aβ(1-40) (Homo sapiens, UniProt P05067); assay: BASSR (Beta-Amyloid Self-Seeding Radioassay), inhibitors of self-seeded amyloid fibril growth; type: biochemical; settings: 30 μM soluble Aβ(1-40) + 125I-labeled Aβ(1-40), 37° C., 3 to 5 hours; replicate values; letter = synthetic lot; ppt = precipitate; V-shaped = inhibition followed by precipitation
T1 construct: […]; purchased Bachem, Torrance, Calif
T1 sequence (P05067 672-711 limits assumed): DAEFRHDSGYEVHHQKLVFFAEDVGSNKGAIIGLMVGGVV
How it was run: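 Self-seeded growth of ^125I-labeled Aβ(1-40) fibrils in 50 mM sodium phosphate pH 7.5, 100 mM NaCl, 0.02% NaN3, 1 M urea; compound (3-fold dilutions from 100 μM final) preincubated 10 min on ice, then 3–5 h at 37° C. Fibrils collected by vacuum filtration on 0.2 μm filters and counted for radioactivity.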

Aβ(1-40) [2] = molecular target: T1, Aβ(1-40); assay: BASST (Beta-Amyloid Self-Seeding, Thioflavin T), inhibitors of self-seeded amyloid fibril growth; type: biochemical; settings: 30 μM soluble Aβ(1-40), 37° C., 3 to 5 hours, thioflavin T fluorescence; replicate values; letter = synthetic lot; read-out: BASST (IC50 = μM)
How it was run: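 Self-seeded Aβ(1-40) fibril growth was run in 50 mM sodium phosphate pH 7.5, 100 mM NaCl, 0.02% NaN3, 1 M urea. Compounds were tested in 3-fold serial dilutions (top 100 μM final): 10 min on ice, then 3–5 h at 37 °C. Fibrils were read by 5 μM thioflavin T fluorescence (ex 440/em 485 nm).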

Aβ (1-42) = molecular target: T2, Aβ (1-42) (Homo sapiens, UniProt P05067); assay: BATYM assay (Aβ (1-42) aggregation, Thioflavin T fluorescence); type: biochemical; settings: Aβ 1-42 final concentration 100 μM, 37° C., 1 day, letter = synthetic lot
T2 construct: Required Aβ (1-42) (California Peptide) was dried from its hexafluoroisopropanol (HFIP) stock solution; purchased California Peptide
T2 sequence (P05067 672-713 limits assumed): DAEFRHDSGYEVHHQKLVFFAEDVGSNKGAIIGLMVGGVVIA
How it was run: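 Aβ (1-42) (100 μM final, PBS pH 7.4 from DMSO) incubated with compound at 37° C. for 1 day. Aggregation read by ThT (30 μM, glycine-NaOH pH 8.5) fluorescence, ex 440/em 485 nm; inhibition as fluorescence reduction corrected for compound-alone signal, IC50 by curve fitting from two experiments in triplicate.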

Aβ (1-40) peptide = molecular target: T3, Aβ (1-40) peptide (Homo sapiens, UniProt P05067); assay: BAPA (Beta-Amyloid Peptide Aggregation, pH 6.0, filtration); type: biochemical; settings: Aβ (1-40) 33 μM, pH 6.0, 2 to 4 hours at room temperature; replicate values; letter = synthetic lot
T3 construct: 10 μL 0.5 mg/mL Aβ (1-40) peptide in 20% HFIP
T3 sequence (P05067 672-711 limits assumed): as the sequence (P05067 672-711 limits assumed) above
How it was run: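 Aggregation of human Aβ (1-40) peptide was measured in an endpoint filtration assay. The peptide was first reduced to monomer with hexafluoroisopropanol (HFIP), then used at 33 μM so it would aggregate at pH 6.0, and incubated for 2 to 4 hours at room temperature. Filter plates were washed with 100 μL phosphate buffer, impregnated with Meltilex, and counted on a Microbeta counter with background correction.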

CS(=O)(=O)NC(=O)c1ccccc1Nc1ccc(CCCc2ccc(Cl)c(Cl)c2)cc1 [Example 60, N-(2-{4-[3-(3,4-Dichloro-phenyl)-propyl]-phenylamino}-benzoyl)-methanesulfonamide]
IC50 (Aβ(1-40) [1]): > 100 µM | IC50 (Aβ(1-40) [2]): 3 µM | IC50 (Aβ (1-42)): 40.7 µM | IC50 (Aβ (1-40) peptide): 8 µM | melting point: 53 to 61 °C

Cl.O=C(O)c1ccccc1Nc1ccc(CCc2cccc(N3CCCCC3)c2)cc1 [Example 42, 2-{4-[2-(3-Piperidin-1-ylphenyl)ethyl]phenylamino}benzoic acid monohydrochloride]
IC50 (Aβ(1-40) [1]): > 100 µM | IC50 (Aβ(1-40) [2]): 2 µM | IC50 (Aβ (1-42)): 55.6 µM | IC50 (Aβ (1-40) peptide): 30 µM | melting point: 187 to 193 °C

CC(=O)Nc1ccc(CCCc2ccc(Nc3ccccc3C(=O)O)cc2)cc1 [Example 39, 2-{4-[3-(4-Acetylaminophenyl)propyl]phenylamino}benzoic acid]
IC50 (Aβ(1-40) [1]): > 100 µM | IC50 (Aβ(1-40) [2]): 20 µM | IC50 (Aβ (1-42)): > 100 µM | IC50 (Aβ (1-40) peptide): 21 µM | melting point: 176 to 178 °C

O=C(O)c1ccccc1Nc1ccc(CCc2cc(Cl)cc(Cl)c2)cc1 [Example 81, 2-{4-[2-(3,5-Dichloro-phenyl)-ethyl]-phenylamino}-benzoic acid]
IC50 (Aβ(1-40) [1]): > 100 µM | IC50 (Aβ(1-40) [2]): 15 µM | IC50 (Aβ (1-42)): 48.4 µM | IC50 (Aβ (1-40) peptide): 73 µM | melting point: 191 to 194 °C

CCCN(CCC)c1cccc(CCc2ccc(Nc3ccccc3C(=O)O)cc2)c1.Cl [Example 37, 2-{4-[2-(3-Dipropylaminophenyl)ethyl]phenylamino}benzoic acid monohydrochloride]
IC50 (Aβ(1-40) [1]): > 100 µM | IC50 (Aβ(1-40) [2]): 0.8 µM | IC50 (Aβ (1-42)): 30.2 µM | IC50 (Aβ (1-40) peptide): 25 µM | melting point: 189 to 193 °C

O=C(O)c1ccc(C(F)(F)F)cc1Nc1ccc(CCc2ccc(Cl)c(Cl)c2)cc1 [Example 145, 2-{4-[2-(3,4-Dichloro-phenyl)-ethyl]-phenylamino}-4-trifluoromethyl-benzoic acid]
IC50 (Aβ(1-40) [1]): 10 µM and 40 µM and 30 µM | IC50 (Aβ(1-40) [2]): 4 µM | IC50 (Aβ (1-42)): 56.8 µM | IC50 (Aβ (1-40) peptide): 9 µM | melting point: 134 to 136 °C

Nc1ccc(CCc2ccc(Nc3ccccc3C(=O)O)cc2)cc1 [Example 24]
IC50 (Aβ(1-40) [1]): > 100 µM | IC50 (Aβ(1-40) [2]): 20 µM | IC50 (Aβ (1-42)): > 100 µM | IC50 (Aβ (1-40) peptide): 91 µM | melting point: 198 to 201 °C

O=C(O)c1cc([N+](=O)[O-])ccc1Nc1ccc(CCc2ccc(Cl)c(Cl)c2)cc1 [Example 2, 2-{4-[2-(3,4-Dichloro-phenyl)-ethyl]phenylamino}-5-nitrobenzoic acid]
IC50 (Aβ(1-40) [1]): 2.2 µM and 4.1 µM (2×) and 12 µM and 4.5 µM | IC50 (Aβ(1-40) [2]): 1 µM and 1.5 µM | IC50 (Aβ (1-42)): 6.52 µM | IC50 (Aβ (1-40) peptide): 70 µM | melting point: 214 to 217 °C

O=C(O)c1ccccc1Nc1ccc(CCCc2ccc(Cl)c(Cl)c2)cc1 [Example 9, 2-{4-[3-(3,4-Dichlorophenyl)-propyl]phenylamino}-benzoic acid]
IC50 (Aβ(1-40) [1]): 20 µM and 30 µM and 52 µM and 40 µM | IC50 (Aβ(1-40) [2]): 1 µM and 2 µM | IC50 (Aβ (1-42)): 20.1 µM and 28.2 µM and 38.6 µM | IC50 (Aβ (1-40) peptide): 75 µM | melting point: 120 to 126 °C

O=C(O)c1cc([N+](=O)[O-])ccc1Nc1ccc(CCc2ccc(F)c(C(F)(F)F)c2)cc1 [Example 69, 2-{4-[2-(4-Fluoro-3-trifluoromethyl-phenyl)-ethyl]-phenylamino}-5-nitro-benzoic acid]
IC50 (Aβ(1-40) [1]): 2 µM and 3.5 µM | IC50 (Aβ(1-40) [2]): 0.8 µM | IC50 (Aβ (1-42)): 11.7 µM | IC50 (Aβ (1-40) peptide): 58 µM | melting point: 190 to 193 °C

O=C(O)c1ccccc1Nc1ccc(CCCc2ccc([N+](=O)[O-])cc2)cc1 [Example 20, 2-{4-[3-(4-Nitrophenyl)propyl]phenylamino}benzoic acid]
IC50 (Aβ(1-40) [1]): 4.2 µM | IC50 (Aβ(1-40) [2]): 6 µM | IC50 (Aβ (1-42)): 68.6 µM | IC50 (Aβ (1-40) peptide): 22 µM | melting point: 150 to 153 °C

O=C(O)c1ccccc1Nc1ccc(CCc2cccc(N(Cc3ccccc3)Cc3ccccc3)c2)cc1 [Example 31, 2-{4-[2-(3-Dibenzylaminophenyl)ethyl]phenylamino}benzoic acid]
IC50 (Aβ(1-40) [1]): > 100 µM | IC50 (Aβ(1-40) [2]): 1 µM | IC50 (Aβ (1-42)): 22.6 µM | IC50 (Aβ (1-40) peptide): 86 µM | melting point: 95.5 to 97.5 °C

CCN(CC)c1cccc(CCc2ccc(Nc3ccccc3C(=O)O)cc2)c1.Cl [Example 41, 2-{4-[2-(3-Diethylaminophenyl)ethyl]phenylamino}benzoic acid monohydrochloride]
IC50 (Aβ(1-40) [1]): > 100 µM | IC50 (Aβ(1-40) [2]): 5 µM | IC50 (Aβ (1-42)): 49.7 µM | IC50 (Aβ (1-40) peptide): 42 µM | melting point: 166 to 171 °C

Nc1ccc(Nc2ccc(CCc3ccc(Cl)c(Cl)c3)cc2)c(C(=O)O)c1 [Example 64, 5-Amino-2-{4-[2-(3,4-Dichloro-phenyl)-ethyl]-phenylamino}-benzoic acid]
IC50 (Aβ(1-40) [1]): > 100 µM | IC50 (Aβ(1-40) [2]): 5 µM | IC50 (Aβ (1-42)): 35 µM | IC50 (Aβ (1-40) peptide): > 100 µM | melting point: 137 to 142 °C

Nc1cccc(CCc2ccc(Nc3ccccc3C(=O)O)cc2)c1 [Example 33, 2-{4-[2-(3-Aminophenyl)ethyl]phenylamino}benzoic acid]
IC50 (Aβ(1-40) [1]): > 100 µM | IC50 (Aβ(1-40) [2]): > 100 µM | IC50 (Aβ (1-42)): > 100 µM | IC50 (Aβ (1-40) peptide): > 10 µM | melting point: 182 to 184 °C

Cc1ccc(Nc2ccc(CCc3ccc(Cl)c(Cl)c3)cc2)c(C(=O)O)c1 [Example 75, 2-{4-[2-(3,4-Dichloro-phenyl)-ethyl]-phenylamino}-5-methyl-benzoic acid]
IC50 (Aβ(1-40) [1]): > 100 µM | IC50 (Aβ(1-40) [2]): 2.2 µM | IC50 (Aβ (1-42)): 46.2 µM | IC50 (Aβ (1-40) peptide): > 60 µM | melting point: 153 to 160 °C

O=C(O)c1ccccc1Nc1ccc(CCc2ccccc2O)cc1 [Example 127, 2-{4-[2-(2-Hydroxy-phenyl)-ethyl]-phenylamino}-benzoic acid]
IC50 (Aβ(1-40) [1]): > 100 µM | IC50 (Aβ(1-40) [2]): 10 µM | IC50 (Aβ (1-42)): > 100 µM | IC50 (Aβ (1-40) peptide): 67 µM | melting point: 218 to 219 °C

O=C(O)c1ccccc1Nc1ccc(-c2ccc(Cl)c(Cl)c2)cc1 [Example 18, 2-[4-(3,4-Dichlorophenyl)phenylamino]benzoic acid]
IC50 (Aβ(1-40) [1]): > 100 µM | IC50 (Aβ(1-40) [2]): 30 µM and > 100 µM | IC50 (Aβ (1-42)): > 100 µM | IC50 (Aβ (1-40) peptide): 9 µM and > 40 µM and 53 µM and 12 µM | melting point: > 220 °C

O=C(O)c1ccccc1Nc1ccc(CCc2ccccc2)cc1 [Example 70, 2-(4-Phenethyl-phenylamino)-benzoic acid]
IC50 (Aβ(1-40) [1]): 20 µM | IC50 (Aβ(1-40) [2]): 10 µM | IC50 (Aβ (1-42)): > 100 µM | IC50 (Aβ (1-40) peptide): 65 µM | melting point: 173 to 182 °C

COc1ccc(CCc2ccc(Nc3ccccc3C(=O)O)cc2)c(OC)c1 [Example 125, 2-{4-[2-(2,4-Dimethoxy-phenyl)-ethyl]-phenylamino}-benzoic acid]
IC50 (Aβ(1-40) [1]): 82 µM | IC50 (Aβ(1-40) [2]): 10 µM | IC50 (Aβ (1-42)): > 100 µM | IC50 (Aβ (1-40) peptide): 80 µM | melting point: 180 to 181 °C

CCCN(CCC)c1ccc(CCc2ccc(Nc3ccccc3C(=O)O)cc2)cc1.Cl [Example 25, 2-{4-[2-(4-Dipropylaminophenyl)ethyl]phenylamino}benzoic acid monohydrochloride]
IC50 (Aβ(1-40) [1]): > 100 µM | IC50 (Aβ(1-40) [2]): 4 µM | IC50 (Aβ (1-42)): 21.1 µM | IC50 (Aβ (1-40) peptide): 47 µM | melting point: 176 to 177 °C

O=C(O)c1cc([N+](=O)[O-])ccc1Nc1ccc(CCc2ccccc2)cc1 [Example 65, 5-Nitro-2-(4-phenethyl-phenylamino)-benzoic acid]
IC50 (Aβ(1-40) [1]): 60 µM and 80 µM | IC50 (Aβ(1-40) [2]): 1.5 µM | IC50 (Aβ (1-42)): 15.9 µM | IC50 (Aβ (1-40) peptide): > 100 µM | melting point: 198 to 202 °C
